This is an account of results in patent publication US20260092071A1, “COMPOUNDS AND COMPOSITIONS AS SMARCA2/4 DEGRADERS AND USES THEREOF” (REGENTS OF THE UNIVERSITY OF MICHIGAN, priority 2022, published 2026).

For one experiment, the target named is SMARCA4 (Homo sapiens, UniProt P51532). Nature of the experiment: HiBiT assay for protein degradation, Hela SMARCA4-HiBiT cells (A series). It counts as cell-based. Details: fuse HiBiT to the carboxy terminus of SMARCA2 (Promega CS302365) or SMARCA4 (Promega CS3023225); host or cells: HeLa (CRISPR/Cas9 HiBiT knock-in). The conditions noted are these: for DC50: read-out: SMARC A4 Hela HiBit DC50. The procedure, abridged:
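SMARCA4 degradation was measured in HeLa cells in which HiBiT had been knocked into the SMARCA4 carboxy terminus via CRISPR/Cas9 (Promega CS3023225). Cells were maintained in DMEM with FBS and penicillin-streptomycin. At the end of treatment, SMARCA4 levels were read by lytic HiBiT luminescence (Nano-Glo®, Promega N3050), and data were analyzed with GraphPad Prism.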

The next experiment deals with SMARCA2 (Homo sapiens, UniProt P51531). Nature of the experiment: HiBiT assay for protein degradation, Hela SMARCA2-HiBiT cells (A series).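 For SMARC A2 Hela HiBit Dmax (%): 24 h compound treatment.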 The settings on record: for DC50: read-out: SMARC A2 Hela HiBit DC50; for Dmax: read-out: SMARC A2 Hela HiBit Dmax (%). Details: Hela cells were genetically modified via CRISPR/Cas9 to fuse HiBiT to the carboxy terminus of SMARCA2; host or cells: HeLa (CRISPR/Cas9 HiBiT knock-in). It counts as cell-based. The essentials: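 SMARCA2 degradation was measured in HeLa cells whose endogenous SMARCA2 carries a carboxy-terminal HiBiT tag introduced by CRISPR/Cas9 (Promega CS302365). Cells were maintained in DMEM with FBS and penicillin-streptomycin. SMARCA2 levels were read at the end of the experiment by Nano-Glo® HiBiT lytic luminescence (Promega N3050) and analyzed in GraphPad Prism.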

The mark [1] stands for this setting: Hela SMARCA4-HiBiT cells, 24 hours treatment.
The mark [2] stands for this setting: Hela SMARCA4-HiBiT cells, 24 hours treatment, read-out: SMARC A4 Hela HiBit Dmax.
Where [3] appears, read: Hela SMARCA2-HiBiT cells, 24 hours treatment.
[4] abbreviates: Hela SMARCA4-HiBiT cells, 24 hours treatment, read-out: SMARC A4 Hela HiBit Dmax(%).

Where two headings read alike, the source gives them in different places.

Sequence of SMARCA4 (P51532 whole entry): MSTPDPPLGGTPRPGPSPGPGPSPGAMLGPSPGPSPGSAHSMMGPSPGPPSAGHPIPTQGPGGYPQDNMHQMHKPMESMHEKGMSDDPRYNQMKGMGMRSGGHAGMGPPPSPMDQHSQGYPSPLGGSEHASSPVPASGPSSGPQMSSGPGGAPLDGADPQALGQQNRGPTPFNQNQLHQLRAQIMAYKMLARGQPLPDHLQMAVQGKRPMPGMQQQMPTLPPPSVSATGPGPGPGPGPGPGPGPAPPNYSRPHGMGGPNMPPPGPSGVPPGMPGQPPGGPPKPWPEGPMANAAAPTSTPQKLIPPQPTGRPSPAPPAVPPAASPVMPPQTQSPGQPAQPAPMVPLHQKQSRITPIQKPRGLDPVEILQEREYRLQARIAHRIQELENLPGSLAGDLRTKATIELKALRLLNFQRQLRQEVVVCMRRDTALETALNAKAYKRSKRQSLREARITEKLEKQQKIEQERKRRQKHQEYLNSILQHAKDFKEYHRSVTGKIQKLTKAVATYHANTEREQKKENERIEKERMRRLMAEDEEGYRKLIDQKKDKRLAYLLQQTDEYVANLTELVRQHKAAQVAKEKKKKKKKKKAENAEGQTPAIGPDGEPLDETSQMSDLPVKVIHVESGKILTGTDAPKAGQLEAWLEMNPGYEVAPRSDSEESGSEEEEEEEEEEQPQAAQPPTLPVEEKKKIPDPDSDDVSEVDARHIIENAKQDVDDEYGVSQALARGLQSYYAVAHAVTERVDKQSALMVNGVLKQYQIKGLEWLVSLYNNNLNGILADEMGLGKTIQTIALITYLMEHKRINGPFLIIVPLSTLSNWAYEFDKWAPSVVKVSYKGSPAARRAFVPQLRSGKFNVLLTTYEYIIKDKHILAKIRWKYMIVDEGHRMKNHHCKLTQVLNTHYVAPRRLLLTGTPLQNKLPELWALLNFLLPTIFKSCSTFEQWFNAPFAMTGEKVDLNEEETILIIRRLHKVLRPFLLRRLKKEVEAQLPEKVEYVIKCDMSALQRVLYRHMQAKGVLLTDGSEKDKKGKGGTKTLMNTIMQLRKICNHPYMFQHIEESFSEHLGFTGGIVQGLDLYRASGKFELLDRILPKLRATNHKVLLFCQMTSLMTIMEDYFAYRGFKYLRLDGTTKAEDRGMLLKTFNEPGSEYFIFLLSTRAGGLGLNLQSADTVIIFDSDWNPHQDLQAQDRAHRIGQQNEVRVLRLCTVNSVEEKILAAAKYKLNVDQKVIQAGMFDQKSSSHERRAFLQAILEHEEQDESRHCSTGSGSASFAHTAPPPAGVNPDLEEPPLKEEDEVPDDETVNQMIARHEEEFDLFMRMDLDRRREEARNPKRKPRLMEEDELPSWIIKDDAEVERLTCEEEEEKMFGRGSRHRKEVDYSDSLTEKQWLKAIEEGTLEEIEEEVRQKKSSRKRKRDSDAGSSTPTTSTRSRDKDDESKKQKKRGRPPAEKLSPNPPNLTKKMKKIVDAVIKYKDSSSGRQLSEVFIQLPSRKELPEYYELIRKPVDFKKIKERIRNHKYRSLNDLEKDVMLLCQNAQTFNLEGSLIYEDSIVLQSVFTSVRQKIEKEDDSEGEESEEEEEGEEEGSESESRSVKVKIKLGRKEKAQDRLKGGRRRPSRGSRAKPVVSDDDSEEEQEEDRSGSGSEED
Sequence of SMARCA2 (P51531 whole entry): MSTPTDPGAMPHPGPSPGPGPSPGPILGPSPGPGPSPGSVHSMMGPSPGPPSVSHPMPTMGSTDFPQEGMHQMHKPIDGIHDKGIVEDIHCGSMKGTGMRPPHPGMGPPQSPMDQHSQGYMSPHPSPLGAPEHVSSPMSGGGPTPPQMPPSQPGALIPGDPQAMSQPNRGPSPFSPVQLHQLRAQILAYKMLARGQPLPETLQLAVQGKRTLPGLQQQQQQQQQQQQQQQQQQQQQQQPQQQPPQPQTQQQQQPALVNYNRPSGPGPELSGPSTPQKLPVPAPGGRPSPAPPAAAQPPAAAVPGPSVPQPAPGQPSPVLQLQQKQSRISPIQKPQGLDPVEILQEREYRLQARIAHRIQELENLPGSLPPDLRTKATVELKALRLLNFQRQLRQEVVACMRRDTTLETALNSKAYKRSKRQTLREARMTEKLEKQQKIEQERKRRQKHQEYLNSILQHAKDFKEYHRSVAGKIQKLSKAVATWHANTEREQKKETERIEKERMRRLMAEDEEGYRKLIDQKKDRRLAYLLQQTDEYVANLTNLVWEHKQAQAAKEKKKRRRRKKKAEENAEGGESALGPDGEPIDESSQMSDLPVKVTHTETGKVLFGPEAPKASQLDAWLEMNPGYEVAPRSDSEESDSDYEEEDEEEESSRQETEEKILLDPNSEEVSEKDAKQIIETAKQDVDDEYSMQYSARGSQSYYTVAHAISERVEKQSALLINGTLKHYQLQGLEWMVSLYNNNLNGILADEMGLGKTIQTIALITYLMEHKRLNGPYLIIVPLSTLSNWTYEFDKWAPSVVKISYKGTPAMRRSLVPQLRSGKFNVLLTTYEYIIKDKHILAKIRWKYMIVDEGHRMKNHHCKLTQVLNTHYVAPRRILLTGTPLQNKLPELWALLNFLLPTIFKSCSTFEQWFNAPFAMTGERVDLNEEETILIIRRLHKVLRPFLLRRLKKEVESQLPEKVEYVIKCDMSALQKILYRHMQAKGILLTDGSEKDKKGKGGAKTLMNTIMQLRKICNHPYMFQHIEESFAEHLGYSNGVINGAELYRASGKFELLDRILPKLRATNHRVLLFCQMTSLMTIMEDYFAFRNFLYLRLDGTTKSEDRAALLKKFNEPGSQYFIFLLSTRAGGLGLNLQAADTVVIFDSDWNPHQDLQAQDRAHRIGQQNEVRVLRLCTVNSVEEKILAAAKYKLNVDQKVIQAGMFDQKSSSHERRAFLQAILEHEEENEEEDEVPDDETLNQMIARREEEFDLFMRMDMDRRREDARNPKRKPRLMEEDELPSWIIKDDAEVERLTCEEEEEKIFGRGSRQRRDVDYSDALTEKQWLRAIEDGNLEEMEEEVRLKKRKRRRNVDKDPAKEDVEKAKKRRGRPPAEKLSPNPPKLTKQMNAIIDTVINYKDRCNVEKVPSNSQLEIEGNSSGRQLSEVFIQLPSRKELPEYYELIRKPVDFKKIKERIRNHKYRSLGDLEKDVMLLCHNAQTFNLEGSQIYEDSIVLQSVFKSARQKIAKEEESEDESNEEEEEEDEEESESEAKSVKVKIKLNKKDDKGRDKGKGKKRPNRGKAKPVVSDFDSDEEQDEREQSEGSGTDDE

On to `Cc1ncsc1-c1ccc([C@H](CN2CCOCC2)NC(=O)[C@@H]2C[C@@H](O)CN2C(=O)[C@@H](n2cc([C@H]3CC[C@H](CN4CCC(c5ccc6c(c5)-n5c(nc(=O)c7c(Br)cccc75)C65CCCCC5)CC4)CC3)nn2)C(C)(C)O)cc1` [Compound A160, (2S,4R)-1-((S)-2-(4-((1r,4S)-4-((4-(4′-bromo-5′-oxo-5′H-spiro[cyclohexane-1,7′-indolo[1,2-a]quinazolin]-10′-yl)piperidin-1-yl)methyl)cyclohexyl)-1H-1,2,3-triazol-1-yl)-3-hydroxy-3-methylbutanoyl)-4-hydroxy-N-((R)-1-(4-(4-methylthiazol-5-yl)phenyl)-2-morpholinoethyl)pyrrolidine-2-carboxamide], for which the results for the DC50 on SMARCA4 (setting [1]) and at SMARCA2 (setting [3]) were > 1000 nM and < 10 nM, respectively. Besides, the Dmax on SMARCA4 (setting [2]) is 50 to 69%; at SMARCA2 (setting [3]), > 90%.
On to `Cc1ncsc1-c1ccc([C@H](CCCCCN2CCC(c3ccc4c(c3)C3(CCCCC3)c3nc(=O)c5c(Br)cccc5n3-4)CC2)NC(=O)[C@@H]2C[C@@H](O)CN2C(=O)[C@@H](NC(=O)C2(N(C)C)CC2)C(C)(C)C)cc1` [Compound A17, (2S,4R)—N—((S)-6-(4-(4′-bromo-5′-oxo-5′H-spiro[cyclohexane-1,7′-indolo[1,2-a]quinazolin]-9′-yl)piperidin-1-yl)-1-(4-(4-methylthiazol-5-yl)phenyl)hexyl)-1-((S)-2-(1-(dimethylamino)cyclopropane-1-carboxamido)-3,3-dimethylbutanoyl)-4-hydroxypyrrolidine-2-carboxamide], for which the DC50 on SMARCA4 (setting [1]) and at SMARCA2 (setting [3]) was < 100 nM throughout. Further, the Dmax was > 90% on SMARCA4 (setting [4]) and 70 to 90% on SMARCA2 (setting [3]).
For `Cc1ncsc1-c1ccc([C@H](CC(=O)N2CCC3(CCC(N4CCC(c5ccc6c(c5)-n5c(nc(=O)c7c(Br)cccc75)C65CCCCC5)CC4)CC3)CC2)NC(=O)[C@@H]2C[C@@H](O)CN2C(=O)[C@@H](n2cc(C3CC3)nn2)C(C)(C)C)cc1` [Compound A144, (2S,4R)—N—((S)-3-(9-(4-(4′-bromo-5′-oxo-5′H-spiro[cyclohexane-1,7′-indolo[1,2-a]quinazolin]-10′-yl)piperidin-1-yl)-3-azaspiro[5.5]undecan-3-yl)-1-(4-(4-methylthiazol-5-yl)phenyl)-3-oxopropyl)-1-((S)-2-(4-cyclopropyl-1H-1,2,3-triazol-1-yl)-3,3-dimethylbutanoyl)-4-hydroxypyrrolidine-2-carboxamide], the DC50 is 10 to 100 nM on SMARCA4 (setting [1]) and < 10 nM at SMARCA2 (setting [3]). Moreover, the Dmax at SMARCA4 (setting [2]) was 70 to 90%; on SMARCA2 (setting [3]), > 90%.
For `Cc1ncsc1-c1ccc([C@H](CN2CCC(C(F)F)CC2)NC(=O)[C@@H]2C[C@@H](O)CN2C(=O)[C@@H](n2cc([C@H]3CC[C@H](CN4CCC(c5ccc6c(c5)-n5c(nc(=O)c7c(Cl)cccc75)C65CCCCC5)CC4)CC3)nn2)C(C)(C)C)cc1` [Compound A84, (2S,4R)-1-((S)-2-(4-((1r,4S)-4-((4-(4′-chloro-5′-oxo-5′H-spiro[cyclohexane-1,7′-indolo[1,2-a]quinazolin]-10′-yl)piperidin-1-yl)methyl)cyclohexyl)-1H-1,2,3-triazol-1-yl)-3,3-dimethylbutanoyl)-N—((R)-2-(4-(difluoromethyl)piperidin-1-yl)-1-(4-(4-methylthiazol-5-yl)phenyl)ethyl)-4-hydroxypyrrolidine-2-carboxamide] the same measures were > 1000 nM, 10 to 100 nM, < 50% and > 90%.
On to `Cc1ncsc1-c1ccc([C@H](Cn2cc([C@H]3CC[C@H](CN4CCC(c5ccc6c(n5)-n5c(nc(=O)c7c(Br)cccc75)C65CCCCC5)CC4)CC3)nn2)NC(=O)[C@@H]2C[C@@H](O)CN2C(=O)[C@@H](NC(=O)C2(F)CC2)C(C)(C)C)cc1` [Compound A34, (2S,4R)—N—((R)-2-(4-((1r,4R)-4-((4-(4′-bromo-5′-oxo-5′H-spiro[cyclohexane-1,7′-pyrido[3′,2′: 4,5]pyrrolo[1,2-a]quinazolin]-10′-yl)piperidin-1-yl)methyl)cyclohexyl)-1H-1,2,3-triazol-1-yl)-1-(4-(4-methylthiazol-5-yl)phenyl)ethyl)-1-((S)-2-(1-fluorocyclopropane-1-carboxamido)-3,3-dimethylbutanoyl)-4-hydroxypyrrolidine-2-carboxamide], for which the values for the DC50 on SMARCA4 (setting [1]) and at SMARCA2 (setting [3]) were > 1000 nM and 501 to 1000 nM, respectively. Further, the results for the Dmax on SMARCA4 (setting [4]) and at SMARCA2 (setting [3]) were < 50% and 50 to 69%, respectively.
With `Cc1ncsc1-c1ccc([C@H](CN2CC(C(=O)O)C2)NC(=O)[C@@H]2C[C@@H](O)CN2C(=O)[C@@H](n2cc([C@H]3CC[C@H](CN4CCC(c5ccc6c(c5)-n5c(nc(=O)c7c(Cl)cccc75)C65CCCCC5)CC4)CC3)nn2)C(C)(C)C)cc1` [Compound A157, 1-((R)-2-((2S,4R)-1-((S)-2-(4-((1r,4S)-4-((4-(4′-chloro-5′-oxo-5′H-spiro[cyclohexane-1,7′-indolo[1,2-a]quinazolin]-10′-yl)piperidin-1-yl)methyl)cyclohexyl)-1H-1,2,3-triazol-1-yl)-3,3-dimethylbutanoyl)-4-hydroxypyrrolidine-2-carboxamido)-2-(4-(4-methylthiazol-5-yl)phenyl)ethyl) azetidine-3-carboxylic acid], the DC50 at SMARCA4 (setting [1]) is > 1000 nM; on SMARCA2 (setting [3]), 100 to 1000 nM. Also, the Dmax was < 50% at SMARCA4 (setting [2]) and 70 to 90% at SMARCA2 (setting [3]).
In the case of `COCCOC[C@H](NC(=O)[C@@H]1C[C@@H](O)CN1C(=O)[C@@H](n1cc([C@H]2CC[C@H](CN3CCC(c4ccc5c(c4)-n4c(nc(=O)c6c(Cl)cccc64)C54CCCCC4)CC3)CC2)nn1)C(C)(C)C)c1ccc(-c2scnc2C)cc1` [Compound A86, (2S,4R)-1-((S)-2-(4-((1r,4S)-4-((4-(4′-chloro-5′-oxo-5′H-spiro[cyclohexane-1,7′-indolo[1,2-a]quinazolin]-10′-yl)piperidin-1-yl)methyl)cyclohexyl)-1H-1,2,3-triazol-1-yl)-3,3-dimethylbutanoyl)-4-hydroxy-N-(®-2-(2-methoxyethoxy)-1-(4-(4-methylthiazol-5-yl)phenyl)ethyl)pyrrolidine-2-carboxamide], the results for the DC50 at SMARCA4 (setting [1]) and on SMARCA2 (setting [3]) were > 1000 nM and < 10 nM, respectively. Besides, the values for the Dmax at SMARCA4 (setting [2]) and at SMARCA2 (setting [3]) were 50 to 69% and > 90%, respectively.
For the compound `Cc1ncsc1-c1ccc([C@H](CN2CCOCC2)NC(=O)[C@@H]2C[C@@H](O)CN2C(=O)[C@@H](NC(=O)C23CCC(CN4CCC(c5ccc6c(c5)-n5c(nc(=O)c7c(Br)cccc75)C65CCCCC5)CC4)(CC2)CC3)C(C)(C)C)cc1` [Compound A30, (2S,4R)-1-((S)-2-(4-((4-(4′-bromo-5′-oxo-5′H-spiro[cyclohexane-1,7′-indolo[1,2-a]quinazolin]-10′-yl)piperidin-1-yl)methyl)bicyclo[2.2.2]octane-1-carboxamido)-3,3-dimethylbutanoyl)-4-hydroxy-N—((R)-1-(4-(4-methylthiazol-5-yl)phenyl)-2-morpholinoethyl)pyrrolidine-2-carboxamide], the “SMARC A4 Hela HiBit Dmax(%)” value on SMARCA4 (setting [1]) is on record as “D (D (<50% degradation))”. Also, the DC50 at SMARCA4 was > 1000 nM; at SMARCA2, < 100 nM. Further, at SMARCA2 (setting [3]), the “SMARC A2 Hela HiBit Dmax (%)” value is given as “B (B (70-90% degradation))”.
Regarding `Cc1ncsc1-c1ccc([C@H](C)NC(=O)[C@@H]2C[C@@H](O)CN2C(=O)[C@H](C2CCN(C)CC2)n2cc([C@H]3CC[C@H](CN4CCC(c5ccc6c(c5)-n5c(nc(=O)c7c(Cl)cccc75)C65CCCCC5)CC4)CC3)nn2)cc1` [Compound A110, (2S,4R)-1-((S)-2-(4-((1r,4S)-4-((4-(4′-chloro-5′-oxo-5′H-spiro[cyclohexane-1,7′-indolo[1,2-a]quinazolin]-10′-yl)piperidin-1-yl)methyl)cyclohexyl)-1H-1,2,3-triazol-1-yl)-2-(1-methylpiperidin-4-yl)acetyl)-4-hydroxy-N—((S)-1-(4-(4-methylthiazol-5-yl)phenyl)ethyl)pyrrolidine-2-carboxamide], the DC50 on SMARCA4 (setting [1]) was > 1000 nM; on SMARCA2 (setting [3]), 10 to 100 nM. Moreover, the Dmax on SMARCA4 (setting [2]) was 50 to 69%; on SMARCA2 (setting [3]) it was > 90%.
As for `Cc1ncsc1-c1ccc([C@H](CO)NC(=O)[C@@H]2C[C@@H](O)CN2C(=O)[C@H](C2CCCCC2)n2cc([C@H]3CC[C@H](CN4CCC(c5ccc6c(c5)-n5c(nc(=O)c7c(Br)cccc75)C65CCCCC5)CC4)CC3)nn2)cc1` [Compound A127], the DC50 on SMARCA4 (setting [1]) and at SMARCA2 (setting [3]) was < 10 nM throughout. Moreover, the figures for the Dmax on SMARCA4 (setting [2]) and on SMARCA2 (setting [3]) were 70 to 90% and > 90%, respectively.
